The source of these data is US12121746B2, “Energy augmentation structures, energy emitters or energy collectors containing the same, and their use in methods and systems for treating cell proliferation disorders” (priority 2019, dated 2024).

Like-named read-outs stand apart in the source and are kept apart here.

Data set [1] has as its system 4T1-HER2 cells. The conditions noted are these: multi-variable regression on 36 independent irradiation experiments; irradiated.
Description: In-vitro X-PACT studies were conducted on cells prepared in the following manner. Cells were incubated in appropriate growing media and buffers before being trypsinized and plated evenly onto twelve (12) well plates for 24 hours. […] The plates were then irradiated with x-rays by placing the plate at a known distance from the x-ray source (e.g., 50 cm). After irradiation the cells were incubated on the plate for 48 hours prior to performing flow cytometry. For compatibility with 96-well Guava Nexin® assay, the remaining cells were again trypsinized (after the 48 hour incubation) and plated onto a 96-well plate. The phosphors used in this evaluation were designated as NP 200 and GTP 4300. […]
Cells plated in 12-well plates, where individual wells in each plate may receive different experimental conditions (e.g. psoralen concentration), but the same x-ray dose (i.e. all wells in a given plate receive the same x-ray dose). The first metric is metabolically viable cell count (or cell viability) determined from the number of whole cells per well as determined using forward scattering (FSC). […] (All wells on a given plate receive the same dose.) The second metric is Annexin V (+) signal, which is the fraction of the metabolically viable cells which expressed a positive Annexin V signal as determined by flow cell cytometry, and include any cells advancing toward early or late apoptotic cell death. […]
Data set [2] concerns KP158B (sarcoma). Put plainly: UV light activated psoralen, Cell-Titer-Glo Luminescence Cell Viability Assay. It counts as cell-based, murine. The following applies: psoralen 40 ρM; UV light 0, 0.25, 0.5, 1.0 J/cm^2; N=4; FIG. 51A. Here is the method:
(§1) Metabolic cell viability was also assessed visually using Methylene blue staining and ATP-induced Luminescence imaging (Cell-Titer-Glo® Luminescence Cell Viability Assay). The luminescence imaging permitted investigation of the cytotoxicity of psoralen activated directly with a UV lamp, and in the absence of phosphors and x-ray radiation. […] The psoralen concentration was 40 ρM.

Data set [3] has as its system 4T1. The description is as above. The conditions noted are these: psoralen 40 ρM; UV light 0, 0.25, 0.5, 1.0 J/cm^2; N=4; FIG. 51A. The class given is cell-based, murine. Here is the method: as §1
In data set [4] the test system is CT2A (murine malignant glioma). The data set is described as above. The class given is cell-based. The conditions noted are these: psoralen 40 ρM; UV light 0, 0.25, 0.5, 1.0 J/cm^2; N=4; FIG. 51A. Here is the method: as §1
Data set [5] has as its system syngeneic 4T1-HER2 tumors. Put plainly: In-vivo X-PACT trial on syngeneic tumors. More on the design: species or system BALB/c mice. The following applies: treatment arms with x-ray; 5 μM psoralen (AMT), 100 μg of phosphor; FIG. 54. Here is the method: There were 4 arms of the trial: […] […] There were 6-8 mice per arm, and the study was repeated a second time, yielding effective sample sizes of 12-16. […] A consistent x-ray irradiation technique was used for all arms (except saline control) which was 2 Gy delivered at 75 kVp by 30 mA in 3 minutes.

For data set [6] the following is noted: cited from earlier work.
The conditions of data set [7]: in vivo; cited from earlier work.

With `O=c1ccc2cc3ccoc3cc2o1` [psoralen], the “cytotoxicity (Annexin V signal)” value in data set [1] is listed as “neither psoralen nor phosphor alone had a strong effect”. In addition, the viable cells result in data set [2], in data set [3] and in data set [4] was “reduce viable cells” in each case. In data set [5], the “tumor growth effect” value was “slightly higher component effect”.

With `CC(=O)[O-].CC(=O)[O-].CCc1c(CC)c2cc3nc(cnc4cc(OCCOCCOCCOC)c(OCCOCCOCCOC)cc4ncc4nc(cc1[n-]2)C(CCCO)=C4C)C(C)=C3CCCO.O.[Lu+3]` [Lutetium texahyrin, Motexafin lutetium], in data set [6] (in vivo), the Length of photosensitization was 24 to 48 h and the “duration of skin photosensitivity” value is 24 to 48 h.

As for Vitamin B12, in data set [7], the route of excretion entry is given as “excreted by glomerular filtration”.

Take `Oc1cccc(-c2c3nc(c(-c4cccc(O)c4)c4ccc([nH]4)c(-c4cccc(O)c4)c4nc(c(-c5cccc(O)c5)c5ccc2[nH]5)CC4)C=C3)c1` [Foscan, Tetra (m-hydroxyphenyl) chlorin]: the Length of photosensitization in data set [6] (Table 3) is 2 weeks. Also, the “duration of skin photosensitivity” value in data set [6] is listed as “approximately 2 weeks”.
